Laboratory results reported in patent US8404857B2, “α-crystalline form of carbabenzpyride” (Farmak International Holding GmbH, priority 2010, dated 2013).
Read-outs that look alike come from different tables or passages of the source. Marks after values point to notes of the source that are not given here.

Legend:
[1] = test system: Influenza A strain New Caledonia (H1N1); type: cell-based; details: NBL-2 cells, MOI 0.01, 24 h
[2] = test system: Influenza A strain California (H3N2); type: cell-based; details: Table 9, NBL-2 cells, MOI 0.001, 24 h
[3] = test system: Influenza A strain Victoria (H3N2); experiment: Virus yield reduction assay, Influenza A Victoria (H3N2); type: cell-based, Influenza A H3N2 (strain Victoria/3/75); details: Table 10, NBL-2 cells, MOI 0.01, 24 h
Adenovirus 3 = experiment: Virus yield reduction assay, Adenovirus 3; type: cell-based; details: A549 cells, MOI 0.05, 4 days
Adenovirus 5 = experiment: Virus yield reduction assay, Adenovirus 5; type: cell-based; details: A549 cells, MOI 0.05, 4 days
Human metapneumovirus = experiment: Virus yield reduction assay, Human metapneumovirus; type: cell-based; details: MK2 cells, MOI 0.1, 8 days
Enterovirus 71 = experiment: Virus yield reduction assay, Enterovirus 71; type: cell-based; details: HFF, MOI 0.1, 3 days
Coxsackie virus A9 = experiment: Virus yield reduction assay, Coxsackie virus A9; type: cell-based; details: HFF, MOI 0.005, 3 days
Echo virus 11 = experiment: Virus yield reduction assay, Echo virus 11; type: cell-based; details: HFF, MOI 0.005, 3 days
Echo virus 30 = experiment: Virus yield reduction assay, Echo virus 30; type: cell-based; details: HFF, MOI 0.01, 3 days
[4] = test system: Human cytomegalovirus Hi91; experiment: Virus yield reduction assay, Human cytomegalovirus Hi91; type: cell-based; details: HFF, MOI 0.02, 5 days
[5] = test system: Human cytomegalovirus AD169; experiment: Virus yield reduction assay, Human cytomegalovirus AD169; type: cell-based; details: HFF, MOI 0.02, 5 days
IFN-α = experiment: Circulating IFN-α levels in blood serum of volunteers with acute respiratory infection; type: in vivo, human; details: for IFN-α Mean value / IFN-α Median: blood serum
Source text: (§1) Increase of IFN-α levels was also observed in patients treated with Placebo, yet, this growth was less intensive than in FAV00A group (Table 22).

IFN-γ = experiment: Circulating IFN-γ levels in blood serum of volunteers with acute respiratory infection; type: in vivo, human; details: for IFN-γ Mean value / IFN-γ Median: blood serum
Source text: as §1

blood monocytes = experiment: Blood monocytes level (complete blood counts) of volunteers; type: in vivo, human; details: throughout the study; control group decreased by V3 and V4
Source text: The results of investigating FAV00A effect of body interferon status correlate with the data collected during statistical processing of volunteers' complete blood counts. […] This fact is indicative of limitation of viral infection immunosuppressive effect on cellular immunity responses in FAV00A treatment group.

[6] = Table 8, 400 μg with 45 minutes pre-incubation
[7] = Table 8, 400 μg without pre-incubation
[8] = 7-th day of the drug intake (Visit V3)
[9] = Visit V3 (7-th day of drug intake)

In the case of `C[n+]1ccc(C(=O)NCc2ccccc2)cc1` [FAV00A, carbabenzpyride], the “% virus yield relative to control” value [1, 6] is reported as 52%, the Fold reduction [1, 6] is reported as 1.92 and the “Titer (TCID50/ml)” value [1, 6] is reported as 1.10 * 10^6 TCID50/ml. The “% virus yield relative to control” value [1, 7] was 31%, the Fold reduction [1, 7] was 3.23 and the “Titer (TCID50/ml)” value [1, 7] was 6.56 * 10^5 TCID50/ml. The “% virus yield relative to control” value ([1]; Table 11a, 400 μg) was 32%, the Fold reduction ([1]; Table 11a, 400 μg) was 3.13 and the “Titer (TCID50/ml)” value ([1]; Table 11a, 400 μg) was 6.81 * 10^3 TCID50/ml. For the same compound, the “% virus yield relative to control” value ([1]; Table 12b, 800 μg) was 28%, the Fold reduction ([1]; Table 12b, 800 μg) was 3.57 and the “Titer (TCID50/ml)” value ([1]; Table 12b, 800 μg) was 2.70 * 10^6 TCID50/ml. For the same compound, the “% virus yield relative to control” value ([2]; 400 μg) was 76%, the Fold reduction ([2]; 400 μg) was 1.32 and the “Titer (TCFD50/ml)” value ([2]; 400 μg) was 2.25 * 10^4 TCFD50/ml. For the same compound, the “% virus yield relative to control” value ([2]; 800 μg) was 61%, the Fold reduction ([2]; 800 μg) was 1.64 and the “Titer (TCFD50/ml)” value ([2]; 800 μg) was 1.80 * 10^4 TCFD50/ml. The “% virus yield relative to control” value ([3]; 400 μg) was 41%, the Fold reduction ([3]; 400 μg) was 2.44 and the “Titer (TCID50/ml)” value ([3]; 400 μg) was 1.20 * 10^6 TCID50/ml. The “% virus yield relative to control” value ([3]; 800 μg) was 27%, the Fold reduction ([3]; 800 μg) was 3.70 and the “Titer (TCID50/ml)” value ([3]; 800 μg) was 7.75 * 10^5 TCID50/ml. The Virus titre (Adenovirus 3; FAV00A 12.5 μg/ml) was 7.2 × 10^7 TCID50/ml, the “% titre reduction in comparison to virus control” value (shortened to “% titre reduction in comparison”) (Adenovirus 3; FAV00A 25 μg/ml) was “(11.3%)” and the Virus titre (Adenovirus 3; FAV00A 25 μg/ml) was 5.4 × 10^7 TCID50/ml. For the same compound, the “% titre reduction in comparison” value (Adenovirus 3; FAV00A 50 μg/ml) was “(43.5%)^1”, the Virus titre (Adenovirus 3; FAV00A 50 μg/ml) was 3.4 × 10^7 TCID50/ml and the Virus titre (Adenovirus 5; FAV00A 12.5 μg/ml) was 7.0 × 10^8 TCID50/ml. For the same compound, the “% titre reduction in comparison” value (Adenovirus 5; FAV00A 25 μg/ml) was “(43.7%)”, the Virus titre (Adenovirus 5; FAV00A 25 μg/ml) was 3.0 × 10^8 TCID50/ml and the “% titre reduction in comparison” value (Adenovirus 5; FAV00A 50 μg/ml) was “(68.4%)^1”. The Virus titre (Adenovirus 5; FAV00A 50 μg/ml) was 1.7 × 10^8 TCID50/ml, the “% titre reduction in comparison” value (Human metapneumovirus; FAV00A 125 μg/ml) was “(88.5%)” and the Virus titre (Human metapneumovirus; FAV00A 125 μg/ml) was 4.0 × 10^4 TCID50/ml. For the same compound, the Virus titre (Human metapneumovirus; FAV00A 250 μg/ml) was 5.4 × 10^4 TCID50/ml, the “% titre reduction in comparison” value (Human metapneumovirus; FAV00A 500 μg/ml) was “(95.6%)^1” and the Virus titre (Human metapneumovirus; FAV00A 500 μg/ml) was 2.0 × 10^3 TCID50/ml. For the same compound, the Virus titre (Enterovirus 71; FAV00A 50 μg/ml) was 5.4 × 10^3 TCID50/ml, the “% titre reduction in comparison” value (Enterovirus 71; FAV00A 100 μg/ml) was “(83.6%)” and the Virus titre (Enterovirus 71; FAV00A 100 μg/ml) was 6.5 × 10^2 TCID50/ml. For the same compound, the “% titre reduction in comparison” value (Enterovirus 71; FAV00A 200 μg/ml) was “(97.6%)^1”, the Virus titre (Enterovirus 71; FAV00A 200 μg/ml) was 9.6 × 10^1 TCID50/ml and the “% titre reduction in comparison” value (Coxsackie virus A9; FAV00A 12.5 μg/ml) was “(45.3%)”. The Virus titre (Coxsackie virus A9; FAV00A 12.5 μg/ml) was 1.7 × 10^4 TCID50/ml, the “% titre reduction in comparison” value (Coxsackie virus A9; FAV00A 25 μg/ml) was “(45.7%)” and the Virus titre (Coxsackie virus A9; FAV00A 25 μg/ml) was 1.7 × 10^5 TCID50/ml. The “% titre reduction in comparison” value (Coxsackie virus A9; FAV00A 50 μg/ml) was “(65.3%)^1”, the Virus titre (Coxsackie virus A9; FAV00A 50 μg/ml) was 1.1 × 10^5 TCID50/ml and the “% titre reduction in comparison” value (Echo virus 11; FAV00A 62.5 μg/ml) was “(41.8%)”. For the same compound, the Virus titre (Echo virus 11; FAV00A 62.5 μg/ml) was 1.8 × 10^8 TCID50/ml, the “% titre reduction in comparison” value (Echo virus 11; FAV00A 125 μg/ml) was “(36.4%)” and the Virus titre (Echo virus 11; FAV00A 125 μg/ml) was 1.9 × 10^8 TCID50/ml. For the same compound, the “% titre reduction in comparison” value (Echo virus 11; FAV00A 250 μg/ml) was “(79.9%)^1”, the Virus titre (Echo virus 11; FAV00A 250 μg/ml) was 6.1 × 10^7 TCID50/ml and the Virus titre (Echo virus 30; FAV00A 25 μg/ml) was 1.2 × 10^8 TCID50/ml. For the same compound, the “% titre reduction in comparison” value (Echo virus 30; FAV00A 50 μg/ml) was “(17.0%)”, the Virus titre (Echo virus 30; FAV00A 50 μg/ml) was 7.9 × 10^7 TCID50/ml and the “% titre reduction in comparison” value (Echo virus 30; FAV00A 100 μg/ml) was “(68.3%)^1”. For the same compound, the Virus titre (Echo virus 30; FAV00A 100 μg/ml) was 3.0 × 10^7 TCID50/ml, the “% titre reduction in comparison” value ([4]; FAV00A 125 μg/ml) was “(24.9%)” and the “% titre reduction in comparison” value ([4]; FAV00A 250 μg/ml) was “(86.0%)”. The Virus titre ([4]; FAV00A 250 μg/ml) was 5.2 × 10^3 TCID50/ml, the “% titre reduction in comparison” value ([4]; FAV00A 500 μg/ml) was “(93.5%)^1” and the Virus titre ([4]; FAV00A 500 μg/ml) was 2.4 × 10^3 TCID50/ml. For the same compound, the Virus titre ([5]; FAV00A 125 μg/ml) was 2.2 × 10^5 TCID50/ml, the Virus titre ([5]; FAV00A 250 μg/ml) was 1.0 × 10^5 TCID50/ml and the “% titre reduction in comparison” value ([5]; FAV00A 500 μg/ml) was “(41.1%)^1”. The Virus titre ([5]; FAV00A 500 μg/ml) was 5.3 × 10^4 TCID50/ml, the “IFN-α levels versus the baseline values and Placebo group” value (IFN-α; [8]) was “Significant elevation” and the “IFN-α Mean value” (IFN-α; Visit V1 (baseline)) was 22.290. The “IFN-α Median” value (IFN-α; Visit V1 (baseline)) was 23.7, the “IFN-α Mean value” (IFN-α; [9]) was 37.563* and the “IFN-α Median” value (IFN-α; [9]) was 37.4*. For the same compound, the “IFN-α Mean value” (IFN-α; Visit V4) was 30.072*, the “IFN-α Median” value (IFN-α; Visit V4) was 30.55* and the “IFN-γ levels versus the baseline values and Placebo group” value (IFN-γ; [8]) was “Significant elevation”. The “IFN-γ Mean value” (IFN-γ; Visit V1 (baseline)) was 33.168, the “IFN-γ Median” value (IFN-γ; Visit V1 (baseline)) was 33.25 and the “IFN-γ Mean value” (IFN-γ; [9]) was 44.670*. The “IFN-γ Median” value (IFN-γ; [9]) was 45.85*, the “IFN-γ Mean value” (IFN-γ; Visit V4) was 41.313* and the “IFN-γ Median” value (IFN-γ; Visit V4) was 40.1*. For the same compound, the “Change of blood monocytes level” value (blood monocytes) was “No considerable decrease”.
For `CC(=O)N[C@H]1[C@H]([C@H](O)[C@H](O)CO)OC(C(=O)O)=C[C@@H]1N=C(N)N` [Zanamivir, reference compound], the “% virus yield relative to control” value ([1]; Table 8, 10 ng) was 23%, the Fold reduction ([1]; Table 8, 10 ng) was 4.35 and the “Titer (TCID50/ml)” value ([1]; Table 8, 10 ng) was 4.85 * 10^5 TCID50/ml. For the same compound, the “% virus yield relative to control” value ([1]; Table 11a, 100 ng) was 3%, the Fold reduction ([1]; Table 11a, 100 ng) was 33.33 and the “Titer (TCID50/ml)” value ([1]; Table 11a, 100 ng) was 7.00 * 10^4 TCID50/ml. The “% virus yield relative to control” value ([1]; Table 12b, 100 ng) was 15%, the Fold reduction ([1]; Table 12b, 100 ng) was 6.67 and the “Titer (TCID50/ml)” value ([1]; Table 12b, 100 ng) was 1.42 * 10^6 TCID50/ml. For the same compound, the “% virus yield relative to control” value ([2]; 100 ng) was 0.4%, the Fold reduction ([2]; 100 ng) was 250 and the “Titer (TCFD50/ml)” value ([2]; 100 ng) was 1.18 * 10^2 TCFD50/ml. For the same compound, the “% virus yield relative to control” value ([3]; 100 ng) was 0.02%, the Fold reduction ([3]; 100 ng) was 5000 and the “Titer (TCID50/ml)” value ([3]; 100 ng) was 7.05 * 10^2 TCID50/ml.
